In patent publication US20140348819A1, “Methods of Treating Cancer” (Dana-Farber Cancer Institute, Inc., priority 2011, published 2014):

How the values were obtained:
[1] = test system: pERK/pAKT; experiment: High-throughput western analysis of pERK/pAKT re-activation by RTK ligands under BRAFi/MEKi; format: cell-based, human; settings: under BRAFi (PLX4720); after 1 hour of cytokine treatment; six V600E BRAF melanoma cell lines
Protocol: FIG. 23B is a western blot showing the activation of AKT (phosphorylated AKT, S473) after 1 hour and 24 hours after treatment with HGF, IGF-1 (IGF), and Insulin (INS) in the presence of BRAFi (PLX4720, 2 μM). FIG. 23C is a western blot showing the effect of HGF (25 ng/mL) on MAPK and PI3K/AKT pathway activation (pRAF1, pMEK, pERK, pAKT and pMET) in melanoma cell lines after 24 hours of treatment with 2 μM BRAFi (PLX4720) or 2 μM MEKi (PD184352).
To understand why, of all the RTKs tested, only HGF could induce such a unique primary resistance phenotype, a high-throughput western analysis was used to test the ability of all 22 RTK ligands to re-activate pERK/pAKT under BRAFi (PLX4720) treatment in six V600E BRAF melanoma cell lines. […] However, whereas the activation of both ERK and AKT by HGF under PLX4720 treatment was long lasting, the activation of either ERK or AKT by the above cytokines was only transient and thus could not confer resistance to the melanoma cell lines.

[2] = test system: six V600E BRAF melanoma cell lines; experiment: Screening of recombinant RTK ligands for ability to confer resistance to BRAFi (PLX4720) or MEKi (PD184352) (Table 4); format: cell-based, human; parameters: ability of recombinant RTK ligand to confer resistance / ability of recombinant RTK ligand to confer resistance (screening value): scale not given here
Method in brief: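 Resistance to BRAFi (PLX4720) or MEKi (PD184352) was tested in six V600E BRAF melanoma lines given one of 22 recombinant RTK ligands. For a subset of RTKs, activation was checked by high-throughput tyrosine kinase phosphorylation profiling and western blot.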

“insulin: RTK ligand (INSR), cytokine tested” was tested. Which “re-activation of pERK/pAKT” value [1] did it give?
Its value is “only reactivate AKT”.

And the “ability of recombinant RTK ligand to confer resistance” value (from here on “ability of recombinant RTK ligand”) ([2]; A2058, PD184352 - 1 uM, ligand 156.25 ng/ml)?
The value was 0.98.

What about the “ability of recombinant RTK ligand” value ([2]; A2058, PD184352 - 1 uM, ligand 625 ng/ml) of the same substance?
The value was 0.99.

What about the “ability of recombinant RTK ligand” value ([2]; A2058, PD184352 - 1 uM, ligand 2500 ng/ml) of the same substance?
Its value is 1.14.

And the “ability of recombinant RTK ligand” value ([2]; A2058, PD184352 - 1 uM, ligand 10000 ng/ml)?
Its value is 1.03.

And the “ability of recombinant RTK ligand” value ([2]; A2058, PD184352 - 1 uM, ligand 40000 ng/ml)?
Its value is 1.06.

What about the “ability of recombinant RTK ligand” value ([2]; A2058, PLX4720 - 2 uM, ligand 156.25 ng/ml) of the same substance?
Its value is 0.98.

What about the “ability of recombinant RTK ligand” value ([2]; A2058, PLX4720 - 2 uM, ligand 625 ng/ml) of the same substance?
Its value is 0.96.

And the “ability of recombinant RTK ligand” value ([2]; A2058, PLX4720 - 2 uM, ligand 2500 ng/ml)?
The value was 1.12.

What about the “ability of recombinant RTK ligand” value ([2]; A2058, PLX4720 - 2 uM, ligand 10000 ng/ml) of the same substance?
The value was 1.02.

And the “ability of recombinant RTK ligand” value ([2]; A2058, PLX4720 - 2 uM, ligand 40000 ng/ml)?
Its value is 1.11.

What about the “ability of recombinant RTK ligand” value ([2]; C32, PD184352 - 1 uM, ligand 156.25 ng/ml) of the same substance?
Its value is 1.09.

What about the “ability of recombinant RTK ligand” value ([2]; C32, PD184352 - 1 uM, ligand 625 ng/ml) of the same substance?
The value was 1.08.

What about the “ability of recombinant RTK ligand” value ([2]; C32, PD184352 - 1 uM, ligand 2500 ng/ml) of the same substance?
Its value is 1.20.

What about the “ability of recombinant RTK ligand” value ([2]; C32, PD184352 - 1 uM, ligand 10000 ng/ml) of the same substance?
Its value is 1.08.

What about the “ability of recombinant RTK ligand” value ([2]; C32, PD184352 - 1 uM, ligand 40000 ng/ml) of the same substance?
Its value is 1.04.

And the “ability of recombinant RTK ligand” value ([2]; C32, PLX4720 - 2 uM, ligand 156.25 ng/ml)?
Its value is 1.14.

What about the “ability of recombinant RTK ligand” value ([2]; C32, PLX4720 - 2 uM, ligand 625 ng/ml) of the same substance?
The value was 1.05.

And the “ability of recombinant RTK ligand” value ([2]; C32, PLX4720 - 2 uM, ligand 2500 ng/ml)?
Its value is 1.20.

What about the “ability of recombinant RTK ligand” value ([2]; C32, PLX4720 - 2 uM, ligand 10000 ng/ml) of the same substance?
The value was 1.02.

And the “ability of recombinant RTK ligand” value ([2]; C32, PLX4720 - 2 uM, ligand 40000 ng/ml)?
The value was 1.04.

What about the “ability of recombinant RTK ligand” value ([2]; Colo 829, PD184352 - 1 uM, ligand 156.25 ng/ml) of the same substance?
Its value is 0.91.

And the “ability of recombinant RTK ligand” value ([2]; Colo 829, PD184352 - 1 uM, ligand 625 ng/ml)?
The value was 0.98.

And the “ability of recombinant RTK ligand” value ([2]; Colo 829, PD184352 - 1 uM, ligand 2500 ng/ml)?
The value was 0.98.

What about the “ability of recombinant RTK ligand” value ([2]; Colo 829, PD184352 - 1 uM, ligand 10000 ng/ml) of the same substance?
Its value is 1.02.

And the “ability of recombinant RTK ligand” value ([2]; Colo 829, PD184352 - 1 uM, ligand 40000 ng/ml)?
The value was 1.02.

What about the “ability of recombinant RTK ligand” value ([2]; Colo 829, PLX4720 - 2 uM, ligand 156.25 ng/ml) of the same substance?
The value was 0.91.

And the “ability of recombinant RTK ligand” value ([2]; Colo 829, PLX4720 - 2 uM, ligand 625 ng/ml)?
Its value is 0.93.

And the “ability of recombinant RTK ligand” value ([2]; Colo 829, PLX4720 - 2 uM, ligand 2500 ng/ml)?
Its value is 0.97.

What about the “ability of recombinant RTK ligand” value ([2]; Colo 829, PLX4720 - 2 uM, ligand 10000 ng/ml) of the same substance?
Its value is 1.01.

What about the “ability of recombinant RTK ligand” value ([2]; Colo 829, PLX4720 - 2 uM, ligand 40000 ng/ml) of the same substance?
The value was 1.00.

What about the “ability of recombinant RTK ligand” value ([2]; G-361, PD184352 - 1 uM, ligand 156.25 ng/ml) of the same substance?
Its value is 0.98.

And the “ability of recombinant RTK ligand” value ([2]; G-361, PD184352 - 1 uM, ligand 625 ng/ml)?
Its value is 0.91.

And the “ability of recombinant RTK ligand” value ([2]; G-361, PD184352 - 1 uM, ligand 2500 ng/ml)?
The value was 1.01.

What about the “ability of recombinant RTK ligand” value ([2]; G-361, PD184352 - 1 uM, ligand 10000 ng/ml) of the same substance?
Its value is 0.98.

And the “ability of recombinant RTK ligand” value ([2]; G-361, PD184352 - 1 uM, ligand 40000 ng/ml)?
The value was 0.97.

And the “ability of recombinant RTK ligand” value ([2]; G-361, PLX4720 - 2 uM, ligand 156.25 ng/ml)?
Its value is 0.92.

And the “ability of recombinant RTK ligand” value ([2]; G-361, PLX4720 - 2 uM, ligand 625 ng/ml)?
Its value is 0.88.

What about the “ability of recombinant RTK ligand” value ([2]; G-361, PLX4720 - 2 uM, ligand 2500 ng/ml) of the same substance?
The value was 0.98.

And the “ability of recombinant RTK ligand” value ([2]; G-361, PLX4720 - 2 uM, ligand 10000 ng/ml)?
Its value is 0.96.

And the “ability of recombinant RTK ligand” value ([2]; G-361, PLX4720 - 2 uM, ligand 40000 ng/ml)?
The value was 0.99.

And the “ability of recombinant RTK ligand” value ([2]; SK-MEL-5, PD184352 - 1 uM, ligand 156.25 ng/ml)?
Its value is 1.20.

And the “ability of recombinant RTK ligand” value ([2]; SK-MEL-5, PD184352 - 1 uM, ligand 625 ng/ml)?
Its value is 1.24.

What about the “ability of recombinant RTK ligand” value ([2]; SK-MEL-5, PD184352 - 1 uM, ligand 2500 ng/ml) of the same substance?
Its value is 1.30.

What about the “ability of recombinant RTK ligand” value ([2]; SK-MEL-5, PD184352 - 1 uM, ligand 10000 ng/ml) of the same substance?
The value was 1.28.

And the “ability of recombinant RTK ligand” value ([2]; SK-MEL-5, PD184352 - 1 uM, ligand 40000 ng/ml)?
The value was 1.66.

What about the “ability of recombinant RTK ligand” value ([2]; SK-MEL-5, PLX4720 - 2 uM, ligand 156.25 ng/ml) of the same substance?
The value was 1.10.

What about the “ability of recombinant RTK ligand” value ([2]; SK-MEL-5, PLX4720 - 2 uM, ligand 625 ng/ml) of the same substance?
Its value is 1.18.

What about the “ability of recombinant RTK ligand” value ([2]; SK-MEL-5, PLX4720 - 2 uM, ligand 2500 ng/ml) of the same substance?
The value was 1.27.

What about the “ability of recombinant RTK ligand” value ([2]; SK-MEL-5, PLX4720 - 2 uM, ligand 10000 ng/ml) of the same substance?
Its value is 1.26.

And the “ability of recombinant RTK ligand” value ([2]; SK-MEL-5, PLX4720 - 2 uM, ligand 40000 ng/ml)?
Its value is 1.43.

What about the “ability of recombinant RTK ligand” value ([2]; SK-MEL-28, PD184352 - 1 uM, ligand 156.25 ng/ml) of the same substance?
Its value is 1.01.

And the “ability of recombinant RTK ligand” value ([2]; SK-MEL-28, PD184352 - 1 uM, ligand 625 ng/ml)?
The value was 0.97.

What about the “ability of recombinant RTK ligand” value ([2]; SK-MEL-28, PD184352 - 1 uM, ligand 2500 ng/ml) of the same substance?
The value was 1.06.

And the “ability of recombinant RTK ligand” value ([2]; SK-MEL-28, PD184352 - 1 uM, ligand 10000 ng/ml)?
The value was 1.13.

What about the “ability of recombinant RTK ligand” value ([2]; SK-MEL-28, PD184352 - 1 uM, ligand 40000 ng/ml) of the same substance?
The value was 1.11.

And the “ability of recombinant RTK ligand” value ([2]; SK-MEL-28, PLX4720 - 2 uM, ligand 156.25 ng/ml)?
Its value is 1.02.

And the “ability of recombinant RTK ligand” value ([2]; SK-MEL-28, PLX4720 - 2 uM, ligand 625 ng/ml)?
Its value is 0.95.

What about the “ability of recombinant RTK ligand” value ([2]; SK-MEL-28, PLX4720 - 2 uM, ligand 2500 ng/ml) of the same substance?
Its value is 0.99.

What about the “ability of recombinant RTK ligand” value ([2]; SK-MEL-28, PLX4720 - 2 uM, ligand 10000 ng/ml) of the same substance?
Its value is 1.05.

What about the “ability of recombinant RTK ligand” value ([2]; SK-MEL-28, PLX4720 - 2 uM, ligand 40000 ng/ml) of the same substance?
The value was 1.05.
